Test results reported in patent EP2271935B1, “METHOD AND KIT FOR THE EX VIVO EVALUATION OF THE RESPONSE OF A TUMOR TO CONDITIONS TO BE TESTED” (Universität Leipzig, priority 2008, dated 2009).
Like-named read-outs stand apart in the source and are kept apart here.

Test system: epithelial cell line KB (DSMZ ACC 136)
Assay: MTT assay of proliferation under varied riboflavin content and light exposure
Assay type: cell-based, human
From the text: To address this question, three media, a) the RPMI 1640 without riboflavin and phenol red that is used in the method according to the invention and was manufactured according to our specifications by Biochrom, as well as two different RPMI 1640 charges purchased from Invitrogen which were each containing 532 nmol/L riboflavin, b) a phenol red-free (Gibco 11835), and c) a conventional RPMI 1640 (Gibco 21875) with 13.284 µmol/L phenol red. All media were supplemented with 2 mmol/L L-alanyl-1-glutamine as stabilized glutamine source (Biochrom K0302 Lot 0755 S) and the same amount of 10% (v/v) of heat-inactivated fetal calf serum (FCS) that was purchased from Invitrogen (Lot 41Q7554K) with a yield of 198 nmol/L riboflavin. […] These medium concentrations define the riboflavin concentrations in controls (see below).
In addition to the influences exerted by the different types of media alone, the riboflavin-dependent impact on the outcome of the docetaxel treatment was investigated. For this purpose 100 µl/well of docetaxel dilutions containing threefold the concentration indicated were added into the wells of microwell plates. The following seven docetaxel concentrations were tested: 19.38, 38.75, 77.5, 155, 310, 620, and 1,240 pmol/L.
To examine photoactivation-dependent riboflavin-mediated effects disturbing the outcome of ex-vivo chemoresponse-evaluation by conventional cell culture medium, and in particular in the absence of flavin-protecting experimental conditions, varying amounts of riboflavin were added. A stock solution of 200 µM (-)-riboflavin (CAS 83-68-5, Sigma R9504, FW=376.37 g/mol, purity >99%, cell culture tested) in phosphate buffered saline was diluted to adjust in each case the highest final concentration in culture (this means: after completion of the assay by addition of the other two components to the final assay volume of 300 µL) to exactly 10 µmol/L. Serial log10-dilutions were made from this concentration in each corresponding medium. These gave final concentrations in cell culture of 10.000, 1.018, 0.12, and 0.03 µmol/L in the case of medium a) (the medium according to the method of the invention), and concentrations of 10.000, 1.449, 0.594, and 0.508 µmol/L using media b) and c).
In general, each combination of riboflavin and docetaxel were tested in duplicate, and controls without additional riboflavin in quadruplicate for each experimental setting in the same 96-well plate. The experimental conditions were as follows: For each of the used media, two different plates were prepared simultaneously and either handled completely under flavin-protecting conditions (illumination only by sodium discharge lamps with an emission wavelength of 589 nm [i]), or in the same bench (Thermo MSC 12) with the installed light inside their working chamber switched on. The dilution of docetaxel and those of riboflavin in the particular medium were prepared for all four plates of each medium type prior to the other working steps under flavin-protecting conditions. Thus the administrations of these dilutions took about 20 min either under flavin-protecting conditions or illuminated conditions. After completed preparation of the plates that thereafter contained 200 µL of both diluted compounds, the plates were incubated 2 h in the incubator to allow for adjustment of the appropriate pH.
In between the stock culture of KB was harvested by trypsination of a 3-days stock culture (exponential growth phase). Stock cultures of KB cells always were grown without any antibiotic or antimycotic in phenol red- and riboflavin-free RPMI 1640 supplemented with 10% (v/v) FCS and were adapted to this medium for more than five passages. They were always handled at room temperature or warmer and were never exposed to light other than the light of a sodium discharge lamp with an emission wavelength of 589 nm for at least five passages. […]

[1] = medium a) (plate 01), 10 µmol/L riboflavin

## CC(=O)O[C@@]12CO[C@@H]1C[C@H](O)[C@@]1(C)C(=O)[C@H](O)C3=C(C)[C@@H](OC(=O)[C@H](O)[C@@H](NC(=O)OC(C)(C)C)c4ccccc4)C[C@@](O)([C@@H](OC(=O)c4ccccc4)[C@H]21)C3(C)C [docetaxel]
Homo sapiens, Epithelial cell, Plate No. 01; Riboflavin 10000 nmol/L; medium a), flavin-protecting conditions, read-out: IC50 for docetaxel normalized to medium control of medium with same riboflavin content
  IC50: 123 pM
Homo sapiens, Epithelial cell, Plate No. 05; Riboflavin 499 nmol/L; medium b) phenol red-free RPMI 1640, flavin-protecting conditions, read-out: IC50 for docetaxel with reference to control with same riboflavin content
  IC50: 206 pM
Homo sapiens, Epithelial cell, Plate No. 05; Riboflavin 499 nmol/L; medium b), flavin-protecting conditions, read-out: IC50 for docetaxel normalized to medium control of medium with same riboflavin content
  IC50: 100 pM
Homo sapiens, Epithelial cell, Plate No. 05; Riboflavin 508 nmol/L; medium b) phenol red-free RPMI 1640, flavin-protecting conditions, read-out: IC50 for docetaxel with reference to control with same riboflavin content
  IC50: 182 pM
Homo sapiens, Epithelial cell, Plate No. 05; Riboflavin 508 nmol/L; medium b), flavin-protecting conditions, read-out: IC50 for docetaxel normalized to medium control of medium with same riboflavin content
  IC50: 88 pM
Homo sapiens, Epithelial cell, Plate No. 05; Riboflavin 594 nmol/L; medium b) phenol red-free RPMI 1640, flavin-protecting conditions, read-out: IC50 for docetaxel with reference to control with same riboflavin content
  IC50: 196 pM
Homo sapiens, Epithelial cell, Plate No. 05; Riboflavin 594 nmol/L; medium b), flavin-protecting conditions, read-out: IC50 for docetaxel normalized to medium control of medium with same riboflavin content
  IC50: 94.9 pM
Homo sapiens, Epithelial cell, Plate No. 05; Riboflavin 1449 nmol/L; medium b) phenol red-free RPMI 1640, flavin-protecting conditions, read-out: IC50 for docetaxel with reference to control with same riboflavin content
  IC50: 197 pM
Homo sapiens, Epithelial cell, Plate No. 05; Riboflavin 1449 nmol/L; medium b), flavin-protecting conditions, read-out: IC50 for docetaxel normalized to medium control of medium with same riboflavin content
  IC50: 95.4 pM
Homo sapiens, Epithelial cell, Plate No. 05; Riboflavin 10000 nmol/L; medium b) phenol red-free RPMI 1640, flavin-protecting conditions, read-out: IC50 for docetaxel with reference to control with same riboflavin content
  IC50: 238 pM
Homo sapiens, Epithelial cell, Plate No. 05; Riboflavin 10000 nmol/L; medium b), flavin-protecting conditions, read-out: IC50 for docetaxel normalized to medium control of medium with same riboflavin content
  IC50: 115 pM
Homo sapiens, Epithelial cell, Plate No. 09; Riboflavin 499 nmol/L; medium c) conventional RPMI 1640 with phenol red, flavin-protecting conditions, read-out: IC50 for docetaxel with reference to control with same riboflavin content
  IC50: 233 pM
Homo sapiens, Epithelial cell, Plate No. 09; Riboflavin 499 nmol/L; medium c), flavin-protecting conditions, read-out: IC50 for docetaxel normalized to medium control of medium with same riboflavin content
  IC50: 100 pM
Homo sapiens, Epithelial cell, Plate No. 09; Riboflavin 508 nmol/L; medium c) conventional RPMI 1640 with phenol red, flavin-protecting conditions, read-out: IC50 for docetaxel with reference to control with same riboflavin content
  IC50: 189 pM
Homo sapiens, Epithelial cell, Plate No. 09; Riboflavin 508 nmol/L; medium c), flavin-protecting conditions, read-out: IC50 for docetaxel normalized to medium control of medium with same riboflavin content
  IC50: 81.3 pM
Homo sapiens, Epithelial cell, Plate No. 09; Riboflavin 594 nmol/L; medium c) conventional RPMI 1640 with phenol red, flavin-protecting conditions, read-out: IC50 for docetaxel with reference to control with same riboflavin content
  IC50: 201 pM
Homo sapiens, Epithelial cell, Plate No. 09; Riboflavin 594 nmol/L; medium c), flavin-protecting conditions, read-out: IC50 for docetaxel normalized to medium control of medium with same riboflavin content
  IC50: 86.5 pM
Homo sapiens, Epithelial cell, Plate No. 09; Riboflavin 1449 nmol/L; medium c) conventional RPMI 1640 with phenol red, flavin-protecting conditions, read-out: IC50 for docetaxel with reference to control with same riboflavin content
  IC50: 284 pM
Homo sapiens, Epithelial cell, Plate No. 09; Riboflavin 1449 nmol/L; medium c), flavin-protecting conditions, read-out: IC50 for docetaxel normalized to medium control of medium with same riboflavin content
  IC50: 122 pM
Homo sapiens, Epithelial cell, Plate No. 09; Riboflavin 10000 nmol/L; medium c) conventional RPMI 1640 with phenol red, flavin-protecting conditions, read-out: IC50 for docetaxel with reference to control with same riboflavin content
  IC50: 394 pM
Homo sapiens, Epithelial cell, Plate No. 09; Riboflavin 10000 nmol/L; medium c), flavin-protecting conditions, read-out: IC50 for docetaxel normalized to medium control of medium with same riboflavin content
  IC50: 169 pM
Homo sapiens, Epithelial cell, medium a) (plate 01), 10 µmol/L riboflavin, flavin-protecting conditions, read-out: IC50 relating to medium control
  IC50: 224 pM
Homo sapiens, Epithelial cell, medium a) (plate 01), 10 µmol/L riboflavin, flavin-protecting conditions, read-out: IC50 with reference to individual control
  IC50: 257 pM
Homo sapiens, Epithelial cell, plates 01, 05, 09 handled completely under flavin-protecting conditions, three types of RPMI 1640, read-out: IC50 values for docetaxel
  IC50: ~200 pM
[1]
  IC50 as % of the IC50 at 20 nmol/L riboflavin, relating to medium control: 107%
  IC50 as % of the IC50 detected in a) at 20 nmol/L riboflavin, individual control: 128%
